Columns and labels:
[1] = test system: CTL epitope peptide specific IgG antibody; test: Measurement of CTL-epitope specific IgG antibody titer in mouse serum (peptide-immobilized beads, Bio-Plex); format: in vivo, CBF1 mice (C57BL/6×Balb/c F1); settings: emulsion with IFA, 100 μl weekly, three times; serum 1 week after final administration; compared with the IFA group
Method: Peptides were immobilized onto xMAP Multi-Analyte COOH Microspheres (Luminex Corporation; hereafter referred to as “beads”) in the manner described below. The beads were washed with MES buffer (0.1 M MES-NaOH; pH 7.0), the supernatant was removed by centrifugation. This washing process was repeated twice and the beads were then suspended in 75 μl of MES buffer. 100 μl of CTL epitope peptide solution (1 mg/ml), and 5 μl of 10 mg/ml EDC (1-ethyl-3-(3-dimethylaminopropyl)carbodiimide hydrochloride) solution was added into beads suspension then mixed well. Thereafter, the reaction was performed at 30° C. in the dark overnight. After the removal of supernatant by centrifugation on the following day, 125 μl of 1 M Tris-HCl was added, and incubation was carried out at 30° C. in the dark for 30 minutes. After the supernatant was removed again, the beads were washed twice with wash buffer (PBS(-), 0.05% Tween 20) and were suspended in Immunoblock (DS Pharma Biomedical Co., Ltd.). […]
The CTL epitope peptide-immobilized beads diluted with Immunoblock were dispensed into wells of a 96-well filter plate. […] After the three times of plate washing with a wash buffer, 100 μl of wash buffer was added into each well to suspend beads, and the mean fluorescence intensity of PE which specifically bound to relevant beads was measured using the Bio-Plex Suspension Array System (BIO-RAD). […]

[2] = test system: CTL epitope peptide specific CTL; test: Induction of epitope peptide specific CTLs in mouse model, detection by IFN-γ ELISPOT; format: in vivo, mice (HLA-A2.1 transgenic and HLA-A24 transgenic mice); settings: emulsion with IFA, 100 μl weekly at base of tail, twice; inguinal lymph node cells 1 week after final administration; positive = spots significantly above negative control peptide (p<0.05)
Method: The peptides having 5 linked epitopes were dissolved in Otsuka distilled water (Otsuka Pharmaceutical Factory Inc.) at 2 mg/ml or 4 mg/ml, and the resulting solution was filled into the B Braun Injekt syringe. After the equivalent amount of Incomplete Freund's adjuvant (IFA) was filled into another syringe, these syringes were connected to each other using a GP syringe connector, and a solution of the peptides having 5 linked epitopes was thoroughly mixed with IFA to prepare an emulsion. The emulsion was weekly administered in amounts of 100 μl each in the vicinity of base of tail of mice (HLA-A2.1 transgenic and HLA-A24 transgenic mice (Taconic)), and administrations were carried out twice in total. Inguinal lymph nodes were corrected from mice 1 week after the final administration. […] The number of IFN-γ-producing cell spots was quantified using an ELISPOT analyzer (Immunospot S6, Cellular Technology Ltd.). […]

Substance	induction of CTL epitope specific IgG antibody production [1]	number of types of CTL epitope peptide specific CTLs induced [2]
PEP2-RR-PEP3-RR-PEP4-RR-PEP5-RR-PEP7 (ASLDSDPWVRRLLQAEAPRLRRDYSARWNEIRRVYDYNCHVDLRRQIRPIFSNR) [TPV17]	multiple CTL epitope specific IgG antibodies production was not induced	
PEP7-RR-PEP2-RR-PEP5-RR-PEP3-RR-PEP4 (QIRPIFSNRRRASLDSDPWVRRVYDYNCHVDLRRLLQAEAPRLRRDYSARWNEI) [TPV18]		no more than two CTLs induced
